{"source": "paper PMC7206119", "about": "“RIP1 inhibition blocks inflammatory diseases but not tumor growth or metastases” (Cell Death and Differentiation, 2019)", "experiment_in_all_cases": "biochemical", "set-up_in_all_cases": "Thermo Fisher SelectScreen kinase panel: Z'-LYTE and Adapta activity, LanthaScreen binding", "key": {"BLK": {"target": "BLK (Homo sapiens, UniProt P51451)", "sequence (P51451 whole entry)": "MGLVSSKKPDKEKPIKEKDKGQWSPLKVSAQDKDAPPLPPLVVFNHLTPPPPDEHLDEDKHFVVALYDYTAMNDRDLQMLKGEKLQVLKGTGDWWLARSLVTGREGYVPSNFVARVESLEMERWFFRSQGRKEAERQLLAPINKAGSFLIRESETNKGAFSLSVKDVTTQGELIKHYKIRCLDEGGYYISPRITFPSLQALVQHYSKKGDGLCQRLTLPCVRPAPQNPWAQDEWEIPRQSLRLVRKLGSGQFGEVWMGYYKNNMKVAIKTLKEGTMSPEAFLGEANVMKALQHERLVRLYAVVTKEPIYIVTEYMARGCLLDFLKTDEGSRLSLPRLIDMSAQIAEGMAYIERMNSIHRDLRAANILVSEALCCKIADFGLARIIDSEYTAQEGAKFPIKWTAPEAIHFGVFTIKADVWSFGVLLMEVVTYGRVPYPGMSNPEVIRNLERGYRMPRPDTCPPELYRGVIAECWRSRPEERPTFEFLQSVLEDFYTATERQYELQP", "outline": "(§1)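 Single-concentration panel: 10 µM GNE684 in KINOMEscan scanMAX binding (468 kinases) and in a 221-kinase panel run as Z'-LYTE/Adapta activity or LanthaScreen binding assays.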"}, "Rse": {"target": "T1, Rse (Homo sapiens, UniProt Q06418)", "T1 construct": "gene TYRO3", "outline": "as §1"}, "IKK-alpha": {"target": "T2, IKK-alpha (Homo sapiens, UniProt O15111)", "T2 construct": "gene CHUK", "outline": "as §1"}, "CDK5/p25": {"target": "T3, CDK5/p25 (Homo sapiens, UniProt Q00535)", "T3 construct": "p25", "outline": "as §1"}, "STK16": {"target": "STK16 (Homo sapiens, UniProt O75716)", "outline": "as §1"}, "TRKA": {"target": "T4, TRKA (Homo sapiens, UniProt P04629)", "T4 construct": "gene NTRK1", "outline": "as §1"}, "FRK": {"target": "FRK (Homo sapiens, UniProt P42685)", "outline": "as §1"}, "DCAMKL2": {"target": "T5, DCAMKL2 (Homo sapiens, UniProt Q8N568)", "T5 construct": "gene DCLK2", "outline": "as §1"}, "PAK6": {"target": "PAK6 (Homo sapiens, UniProt Q9NQU5)", "sequence (Q9NQU5 whole entry)": "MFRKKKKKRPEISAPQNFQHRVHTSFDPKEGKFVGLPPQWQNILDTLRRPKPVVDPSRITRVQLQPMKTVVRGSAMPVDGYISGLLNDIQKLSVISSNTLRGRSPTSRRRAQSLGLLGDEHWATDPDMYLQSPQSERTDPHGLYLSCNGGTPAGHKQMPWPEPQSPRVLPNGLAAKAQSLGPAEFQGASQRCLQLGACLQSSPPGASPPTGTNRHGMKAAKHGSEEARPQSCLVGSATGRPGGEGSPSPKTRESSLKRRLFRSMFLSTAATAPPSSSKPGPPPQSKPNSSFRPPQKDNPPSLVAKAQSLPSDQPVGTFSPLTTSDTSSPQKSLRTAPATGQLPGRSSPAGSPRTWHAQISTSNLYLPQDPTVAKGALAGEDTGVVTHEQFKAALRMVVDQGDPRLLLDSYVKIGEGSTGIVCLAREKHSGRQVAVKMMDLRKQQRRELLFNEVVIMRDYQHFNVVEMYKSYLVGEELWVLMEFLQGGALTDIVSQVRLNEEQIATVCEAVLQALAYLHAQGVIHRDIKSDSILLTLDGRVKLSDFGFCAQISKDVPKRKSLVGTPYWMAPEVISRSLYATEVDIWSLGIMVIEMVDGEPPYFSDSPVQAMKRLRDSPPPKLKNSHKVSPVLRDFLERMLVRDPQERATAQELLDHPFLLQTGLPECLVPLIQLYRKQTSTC", "outline": "as §1"}, "DRAK1": {"target": "T6, DRAK1 (Homo sapiens, UniProt Q9UEE5)", "T6 construct": "gene STK17A", "outline": "as §1"}, "TIE2": {"target": "T7, TIE2 (Homo sapiens, UniProt Q02763)", "T7 construct": "gene TEK", "outline": "as §1"}, "SRC": {"target": "SRC (Homo sapiens, UniProt P12931)", "outline": "as §1"}, "RAF1(Y340D,Y341D)": {"target": "RAF1(Y340D,Y341D) (Homo sapiens, UniProt P04049, Y340D/Y341D)", "outline": "as §1"}, "EPHA8": {"target": "EPHA8 (Homo sapiens, UniProt P29322)", "sequence (P29322 whole entry)": "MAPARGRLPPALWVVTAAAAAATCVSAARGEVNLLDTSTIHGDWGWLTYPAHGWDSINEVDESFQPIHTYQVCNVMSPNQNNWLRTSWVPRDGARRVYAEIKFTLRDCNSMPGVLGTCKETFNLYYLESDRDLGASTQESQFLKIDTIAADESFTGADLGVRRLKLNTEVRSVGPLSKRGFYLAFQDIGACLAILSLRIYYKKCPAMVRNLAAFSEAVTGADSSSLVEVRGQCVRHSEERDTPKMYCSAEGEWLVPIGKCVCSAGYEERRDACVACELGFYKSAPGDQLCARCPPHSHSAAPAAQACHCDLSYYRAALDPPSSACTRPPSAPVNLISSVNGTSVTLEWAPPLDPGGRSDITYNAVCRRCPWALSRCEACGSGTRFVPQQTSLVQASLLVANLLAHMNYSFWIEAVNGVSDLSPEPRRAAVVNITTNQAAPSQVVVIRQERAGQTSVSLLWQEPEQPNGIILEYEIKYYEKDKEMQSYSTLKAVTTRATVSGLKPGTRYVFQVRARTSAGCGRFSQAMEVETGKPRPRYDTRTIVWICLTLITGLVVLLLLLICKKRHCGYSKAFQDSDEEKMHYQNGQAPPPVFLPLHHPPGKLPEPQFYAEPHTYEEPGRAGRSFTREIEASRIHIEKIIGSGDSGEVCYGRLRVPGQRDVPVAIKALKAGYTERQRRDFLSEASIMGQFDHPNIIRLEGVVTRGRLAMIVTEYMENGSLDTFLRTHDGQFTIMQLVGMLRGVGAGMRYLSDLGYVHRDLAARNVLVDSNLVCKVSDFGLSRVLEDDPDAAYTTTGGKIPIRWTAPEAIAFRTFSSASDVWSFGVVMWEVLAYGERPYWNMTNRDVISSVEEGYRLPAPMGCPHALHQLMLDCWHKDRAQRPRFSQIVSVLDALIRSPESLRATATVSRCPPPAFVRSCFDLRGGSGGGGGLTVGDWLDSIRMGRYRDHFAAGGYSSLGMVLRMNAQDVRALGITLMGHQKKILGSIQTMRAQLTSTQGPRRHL", "outline": "as §1"}, "EPHA3": {"target": "EPHA3 (Homo sapiens, UniProt P29320)", "sequence (P29320 whole entry)": "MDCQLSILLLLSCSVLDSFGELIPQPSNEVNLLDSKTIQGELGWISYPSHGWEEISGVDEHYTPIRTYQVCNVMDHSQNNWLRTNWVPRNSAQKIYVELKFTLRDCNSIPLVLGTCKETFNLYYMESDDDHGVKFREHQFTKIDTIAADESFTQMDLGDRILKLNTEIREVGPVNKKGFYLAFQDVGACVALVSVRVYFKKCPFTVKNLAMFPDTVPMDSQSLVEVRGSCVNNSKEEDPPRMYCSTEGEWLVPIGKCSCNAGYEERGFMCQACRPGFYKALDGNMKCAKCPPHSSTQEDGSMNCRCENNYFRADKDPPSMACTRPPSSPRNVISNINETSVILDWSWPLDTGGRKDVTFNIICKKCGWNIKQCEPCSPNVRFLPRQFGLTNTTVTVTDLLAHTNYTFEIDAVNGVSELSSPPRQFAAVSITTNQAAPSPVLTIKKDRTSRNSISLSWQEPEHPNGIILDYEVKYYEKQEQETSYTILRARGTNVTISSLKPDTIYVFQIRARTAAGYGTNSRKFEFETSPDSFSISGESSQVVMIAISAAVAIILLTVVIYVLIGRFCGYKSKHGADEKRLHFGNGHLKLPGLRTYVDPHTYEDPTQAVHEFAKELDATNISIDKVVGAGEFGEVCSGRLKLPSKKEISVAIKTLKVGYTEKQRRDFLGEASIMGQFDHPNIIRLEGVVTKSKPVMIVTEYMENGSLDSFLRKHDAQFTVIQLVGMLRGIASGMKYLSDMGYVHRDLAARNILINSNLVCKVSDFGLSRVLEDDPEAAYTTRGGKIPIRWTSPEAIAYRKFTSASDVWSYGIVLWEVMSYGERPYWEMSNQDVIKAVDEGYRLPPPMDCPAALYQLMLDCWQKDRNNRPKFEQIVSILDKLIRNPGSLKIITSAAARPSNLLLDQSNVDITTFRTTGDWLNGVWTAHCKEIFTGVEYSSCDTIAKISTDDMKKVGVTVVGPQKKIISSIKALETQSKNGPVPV", "outline": "as §1"}, "SRPK1": {"target": "SRPK1 (Homo sapiens, UniProt Q96SB4)", "outline": "as §1"}, "JNK1_alpha1": {"target": "T8, JNK1_alpha1 (Homo sapiens, UniProt P45983)", "T8 construct": "gene MAPK8; isoform alpha1", "T8 sequence (P45983 whole entry, canonical isoform)": "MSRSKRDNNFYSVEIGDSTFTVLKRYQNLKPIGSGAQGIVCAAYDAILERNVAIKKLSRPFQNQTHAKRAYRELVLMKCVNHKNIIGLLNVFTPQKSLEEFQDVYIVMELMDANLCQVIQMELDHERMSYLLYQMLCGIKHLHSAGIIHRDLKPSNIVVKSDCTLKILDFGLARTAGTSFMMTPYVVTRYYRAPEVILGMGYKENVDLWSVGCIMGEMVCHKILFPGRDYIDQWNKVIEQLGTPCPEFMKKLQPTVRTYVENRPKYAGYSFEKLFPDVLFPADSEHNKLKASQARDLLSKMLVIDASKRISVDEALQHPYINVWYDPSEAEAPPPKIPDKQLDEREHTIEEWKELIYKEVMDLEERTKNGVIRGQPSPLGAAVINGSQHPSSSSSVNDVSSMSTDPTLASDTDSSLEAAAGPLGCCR", "outline": "as §1"}, "CDK9/cyclinT1": {"target": "CDK9/cyclinT1 (Homo sapiens, UniProt P50750)", "outline": "as §1"}, "ERBB4": {"target": "ERBB4 (Homo sapiens, UniProt Q15303)", "outline": "as §1"}, "p70S6K": {"target": "T9, p70S6K (Homo sapiens, UniProt P23443)", "T9 construct": "gene RPS6KB1", "outline": "as §1"}, "GRK3": {"target": "GRK3 (Homo sapiens, UniProt P35626)", "outline": "as §1"}, "Ron": {"target": "T10, Ron (Homo sapiens, UniProt Q04912)", "T10 construct": "gene MST1R", "T10 sequence (Q04912 whole entry)": "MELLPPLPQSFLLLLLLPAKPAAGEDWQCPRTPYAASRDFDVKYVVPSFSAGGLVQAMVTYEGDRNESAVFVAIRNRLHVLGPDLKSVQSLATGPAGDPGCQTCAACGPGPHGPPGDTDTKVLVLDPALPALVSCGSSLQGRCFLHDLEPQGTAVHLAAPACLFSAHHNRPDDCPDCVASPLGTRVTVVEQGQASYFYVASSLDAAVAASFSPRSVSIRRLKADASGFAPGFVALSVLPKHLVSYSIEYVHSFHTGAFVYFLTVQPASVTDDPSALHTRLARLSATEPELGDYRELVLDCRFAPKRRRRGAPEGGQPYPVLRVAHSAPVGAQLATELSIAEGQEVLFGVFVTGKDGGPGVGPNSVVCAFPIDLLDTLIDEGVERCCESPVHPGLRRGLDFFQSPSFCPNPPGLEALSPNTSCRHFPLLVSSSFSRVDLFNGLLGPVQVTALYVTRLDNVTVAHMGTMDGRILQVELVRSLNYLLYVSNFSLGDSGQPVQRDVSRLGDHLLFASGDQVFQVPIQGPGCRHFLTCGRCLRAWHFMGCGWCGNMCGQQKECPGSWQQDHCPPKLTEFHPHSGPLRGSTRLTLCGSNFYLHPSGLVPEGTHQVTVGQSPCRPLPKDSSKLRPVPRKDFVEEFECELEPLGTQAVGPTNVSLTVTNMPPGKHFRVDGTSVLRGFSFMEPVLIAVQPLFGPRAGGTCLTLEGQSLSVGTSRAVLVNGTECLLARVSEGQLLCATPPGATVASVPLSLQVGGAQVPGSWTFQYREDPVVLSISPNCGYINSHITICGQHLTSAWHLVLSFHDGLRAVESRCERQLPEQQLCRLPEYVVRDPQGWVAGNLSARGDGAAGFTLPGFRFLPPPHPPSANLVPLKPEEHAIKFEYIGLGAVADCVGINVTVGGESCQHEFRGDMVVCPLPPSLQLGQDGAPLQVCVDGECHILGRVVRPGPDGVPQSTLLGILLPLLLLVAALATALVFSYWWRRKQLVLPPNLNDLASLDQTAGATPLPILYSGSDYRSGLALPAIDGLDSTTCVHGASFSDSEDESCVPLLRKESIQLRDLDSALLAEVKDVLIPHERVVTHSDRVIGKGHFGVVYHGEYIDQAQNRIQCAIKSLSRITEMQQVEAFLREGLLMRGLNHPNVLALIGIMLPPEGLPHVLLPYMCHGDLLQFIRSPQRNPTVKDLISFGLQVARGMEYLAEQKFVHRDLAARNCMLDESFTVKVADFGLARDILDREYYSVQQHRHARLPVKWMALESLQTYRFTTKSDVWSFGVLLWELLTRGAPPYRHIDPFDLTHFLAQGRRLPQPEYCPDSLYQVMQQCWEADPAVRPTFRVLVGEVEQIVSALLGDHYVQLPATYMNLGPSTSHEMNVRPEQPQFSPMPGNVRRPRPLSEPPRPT", "outline": "as §1"}, "CamKIV": {"target": "T11, CamKIV (Homo sapiens, UniProt Q16566)", "T11 construct": "gene CAMK4", "outline": "as §1"}}}
{"smiles": "COc1cc2c(cn1)N(C)C(=O)[C@@H](NC(=O)c1nc3n(n1)[C@H](c1ccccc1)CC3)CC2", "note": "[GNE684, (S)-N-((S)-7-methoxy-1-methyl-2-oxo-2,3,4,5-tetrahydro-1H-pyrido[3,4-b]azepin-3-yl)-5-phenyl-6,7-dihydro-5H-pyrrolo[1,2-b][1,2,4]triazole-2-carboxamide]", "values": [{"measurement": "inhibition at 10 µM", "setting": "BLK", "value": 6.5, "unit": "%"}, {"measurement": "inhibition at 10 µM", "setting": "Rse", "value": 5, "unit": "%"}, {"measurement": "inhibition at 10 µM", "setting": "IKK-alpha", "value": -3, "unit": "%"}, {"measurement": "inhibition at 10 µM", "setting": "CDK5/p25", "value": 4.5, "unit": "%"}, {"measurement": "inhibition at 10 µM", "setting": "STK16", "value": -2, "unit": "%"}, {"measurement": "inhibition at 10 µM", "setting": "TRKA", "value": -3, "unit": "%"}, {"measurement": "inhibition at 10 µM", "setting": "FRK", "value": 4.5, "unit": "%"}, {"measurement": "inhibition at 10 µM", "setting": "DCAMKL2", "value": 2, "unit": "%"}, {"measurement": "inhibition at 10 µM", "setting": "PAK6", "value": 4.5, "unit": "%"}, {"measurement": "inhibition at 10 µM", "setting": "DRAK1", "value": 0.5, "unit": "%"}, {"measurement": "inhibition at 10 µM", "setting": "TIE2", "value": -4.5, "unit": "%"}, {"measurement": "inhibition at 10 µM", "setting": "SRC", "value": -1, "unit": "%"}, {"measurement": "inhibition at 10 µM", "setting": "RAF1(Y340D,Y341D)", "value": -2, "unit": "%"}, {"measurement": "inhibition at 10 µM", "setting": "EPHA8", "value": 5.5, "unit": "%"}, {"measurement": "inhibition at 10 µM", "setting": "EPHA3", "value": -3.5, "unit": "%"}, {"measurement": "inhibition at 10 µM", "setting": "SRPK1", "value": -0.5, "unit": "%"}, {"measurement": "inhibition at 10 µM", "setting": "JNK1_alpha1", "value": -5.5, "unit": "%"}, {"measurement": "inhibition at 10 µM", "setting": "CDK9/cyclinT1", "value": 9, "unit": "%"}, {"measurement": "inhibition at 10 µM", "setting": "ERBB4", "value": 4, "unit": "%"}, {"measurement": "inhibition at 10 µM", "setting": "p70S6K", "value": 10, "unit": "%"}, {"measurement": "inhibition at 10 µM", "setting": "GRK3", "value": 2.5, "unit": "%"}, {"measurement": "inhibition at 10 µM", "setting": "Ron", "value": 4.5, "unit": "%"}, {"measurement": "inhibition at 10 µM", "setting": "CamKIV", "value": -1, "unit": "%"}]}
